Measured values taken from patent US20060148774A1, “Hypoglycemic agent” (Riken, priority 2001, published 2006).

Columns and labels:
c57BL db/db male mice [1] = test: Change in blood sugar level in Type-2 diabetes model mice fed 5-campesten-3-one in the feed; format: in vivo; conditions: for blood sugar level relative to control group (second group): 0.1% in the feed
c57BL db/db male mice [2] = test: Oral glucose tolerance test (OGTT); format: in vivo; conditions: db/db mice 19-week old; for OGTT blood sugar level: glucose 2 g/kg oral
Protocol: The animals were allowed to water ad libitum.
For oral glucose tolerance test, the animals, starved for 16 hours from the night before of the end of the feeding (19-week old), were orally administered with glucose (2 g/kg), and the bloods were collected from orbital venous plexus at time 0 and after 60 and 120 minutes by using a capillary glass to measure blood sugar levels.

c57BL db/db male mice [3] = test: Urinary sugar by urinary test paper; format: in vivo; conditions: for urinary sugar, Positive ratio: + or higher positive
Body weight = format: in vivo; conditions: db/db mice, 0.3% in the feed, 19-week old
c57BL db/db male mice [4] = conditions: 19-week old
Protocol: (§1) 6-Week old c57BL db/db male mice, as being a Type-2 diabetes model animal having homozygote diabetes pathogenic gene (db), were divided in three groups each consisting of 10 animals. A group of healthy c57BL db/+m male mice (10 animals) having heterozygote db gene was used as a control group. The animals were housed in plastic cages for mice at five animals per cage. The animals were fed under feeding conditions at a temperature of 24±1° C. and a relative humidity of 55±5%, where light and darkness were controlled to change every 12 hours, and each cage and bedding materials were exchanged twice a week. The animals were allowed to water ad libitum.
(§2) Feed CMF for mouse (Oriental Yeast Co.) was used as a basic feed, and 0.1% or 0.3% of 5-campesten-3-one was mixed to the feed to prepare an experimental feed. The resulting feeds were kept at 4° C. before the start of feeding.
(§3) The animals were autopsied, and the brain, lungs, heart, liver, spleen, pancreas, kidneys, adrenals, and testis were macroscopically examined and weighed.

c57BL db/db male mice [5] = conditions: mouse, in vivo
Protocol: as §1, §2, §3

[6] = 0.3% in the feed, 7- to 17-week old
[7] = 0.1% in the feed, week 7 (period 0 week)
[8] = 0.1% in the feed, week 9 (period 2 weeks)
[9] = 0.1% in the feed, week 11 (period 4 weeks)
[10] = 0.1% in the feed, week 13 (period 6 weeks)
[11] = 0.1% in the feed, week 15 (period 8 weeks)
[12] = 0.1% in the feed, week 17 (period 10 weeks)
[13] = 0.3% in the feed, week 7 (period 0 week)
[14] = 0.3% in the feed, week 9 (period 2 weeks)
[15] = 0.3% in the feed, week 11 (period 4 weeks)
[16] = 0.3% in the feed, week 13 (period 6 weeks)
[17] = 0.3% in the feed, week 15 (period 8 weeks)
[18] = 0.3% in the feed, week 17 (period 10 weeks)

CC(C)[C@H](C)CC[C@@H](C)[C@H]1CC[C@H]2[C@@H]3CC=C4CC(=O)CC[C@]4(C)[C@H]3CC[C@]12C [5-campesten-3-one]
blood sugar level relative to control group (second group) (c57BL db/db male mice [1]; 9-week old): increased
blood sugar level relative to control group (second group) (c57BL db/db male mice [1]; 11-week old): decreased
blood sugar level relative to control group (second group) (c57BL db/db male mice [1]; 17-week old): lower level
change with time in blood sugar level (c57BL db/db male mice [1]; [6]): almost constant level without a significant increase
blood sugar level, initial value (c57BL db/db male mice [1]; 0.3% in the feed, 7-week old): 270 mg/dL
blood sugar level compared to control group (second group) (c57BL db/db male mice [1]; 0.3% in the feed, after 9-week old): significantly lower values at every measuring times after 9-week old
OGTT blood sugar levels compared to second group (c57BL db/db male mice [2]; 0.1% in the feed, every measuring point): significantly lower than the levels of the second group at every measuring points
OGTT blood sugar level (c57BL db/db male mice [2]; 0.1% in the feed, 60 minutes): 703 mg/dL
OGTT blood sugar level (c57BL db/db male mice [2]; 0.1% in the feed, 120 minutes): 558 mg/dL
OGTT blood sugar level (c57BL db/db male mice [2]; 0.1% in the feed, time 0): 497 mg/dL
OGTT blood sugar level (c57BL db/db male mice [2]; 0.3% in the feed, 60 minutes): almost the same 60-munites value as that of the third group
OGTT blood sugar level (c57BL db/db male mice [2]; 0.3% in the feed, 120 minutes): 440 mg/dL
OGTT blood sugar level (c57BL db/db male mice [2]; 0.3% in the feed, time 0): 282 mg/dL
onset of positive urinary sugar (c57BL db/db male mice [3]; 0.1% in the feed): a delay in giving a positive result was observed
urinary sugar, number of mice graded + (c57BL db/db male mice [3]; [7]): 1
urinary sugar, number of mice graded ++ (c57BL db/db male mice [3]; [7]): 0
urinary sugar, number of mice graded +++ (c57BL db/db male mice [3]; [7]): 4
urinary sugar, number of mice graded ± (c57BL db/db male mice [3]; [7]): 1
urinary sugar, number of mice graded − (c57BL db/db male mice [3]; [7]): 2
urinary sugar, Positive ratio (c57BL db/db male mice [3]; [7]): 63%
urinary sugar, number of mice graded + (c57BL db/db male mice [3]; [8]): 0
urinary sugar, number of mice graded ++ (c57BL db/db male mice [3]; [8]): 2
urinary sugar, number of mice graded +++ (c57BL db/db male mice [3]; [8]): 2
urinary sugar, number of mice graded ± (c57BL db/db male mice [3]; [8]): 2
urinary sugar, number of mice graded − (c57BL db/db male mice [3]; [8]): 1
urinary sugar, Positive ratio (c57BL db/db male mice [3]; [8]): 57%
urinary sugar, number of mice graded + (c57BL db/db male mice [3]; [9]): 1
urinary sugar, number of mice graded ++ (c57BL db/db male mice [3]; [9]): 0
urinary sugar, number of mice graded +++ (c57BL db/db male mice [3]; [9]): 7
urinary sugar, number of mice graded ± (c57BL db/db male mice [3]; [9]): 0
urinary sugar, number of mice graded − (c57BL db/db male mice [3]; [9]): 1
urinary sugar, Positive ratio (c57BL db/db male mice [3]; [9]): 89%
urinary sugar, number of mice graded + (c57BL db/db male mice [3]; [10]): 0
urinary sugar, number of mice graded ++ (c57BL db/db male mice [3]; [10]): 0
urinary sugar, number of mice graded +++ (c57BL db/db male mice [3]; [10]): 9
urinary sugar, number of mice graded ± (c57BL db/db male mice [3]; [10]): 0
urinary sugar, number of mice graded − (c57BL db/db male mice [3]; [10]): 0
urinary sugar, Positive ratio (c57BL db/db male mice [3]; [10]): 100%
urinary sugar, number of mice graded + (c57BL db/db male mice [3]; [11]): 0
urinary sugar, number of mice graded ++ (c57BL db/db male mice [3]; [11]): 1
urinary sugar, number of mice graded +++ (c57BL db/db male mice [3]; [11]): 8
urinary sugar, number of mice graded ± (c57BL db/db male mice [3]; [11]): 0
urinary sugar, number of mice graded − (c57BL db/db male mice [3]; [11]): 0
urinary sugar, Positive ratio (c57BL db/db male mice [3]; [11]): 100%
urinary sugar, number of mice graded + (c57BL db/db male mice [3]; [12]): 1
urinary sugar, number of mice graded ++ (c57BL db/db male mice [3]; [12]): 0
urinary sugar, number of mice graded +++ (c57BL db/db male mice [3]; [12]): 8
urinary sugar, number of mice graded ± (c57BL db/db male mice [3]; [12]): 0
urinary sugar, number of mice graded − (c57BL db/db male mice [3]; [12]): 0
urinary sugar, Positive ratio (c57BL db/db male mice [3]; [12]): 100%
positive ratio of urinary sugar, range over the test period (c57BL db/db male mice [3]; [6]): 14 to 70%
positive degrees of urinary sugar compared to control group (second group) (c57BL db/db male mice [3]; 0.3% in the feed, almost a half of the mice + (150 mg/dl) or ++ (500 mg/dl)): lower than the results of the control group
urinary sugar, number of mice graded + (c57BL db/db male mice [3]; [13]): 0
urinary sugar, number of mice graded ++ (c57BL db/db male mice [3]; [13]): 0
urinary sugar, number of mice graded +++ (c57BL db/db male mice [3]; [13]): 1
urinary sugar, number of mice graded ± (c57BL db/db male mice [3]; [13]): 0
urinary sugar, number of mice graded − (c57BL db/db male mice [3]; [13]): 6
urinary sugar, Positive ratio (c57BL db/db male mice [3]; [13]): 14%
urinary sugar, number of mice graded + (c57BL db/db male mice [3]; [14]): 0
urinary sugar, number of mice graded ++ (c57BL db/db male mice [3]; [14]): 1
urinary sugar, number of mice graded +++ (c57BL db/db male mice [3]; [14]): 0
urinary sugar, number of mice graded ± (c57BL db/db male mice [3]; [14]): 0
urinary sugar, number of mice graded − (c57BL db/db male mice [3]; [14]): 4
urinary sugar, Positive ratio (c57BL db/db male mice [3]; [14]): 20%
urinary sugar, number of mice graded + (c57BL db/db male mice [3]; [15]): 0
urinary sugar, number of mice graded ++ (c57BL db/db male mice [3]; [15]): 2
urinary sugar, number of mice graded +++ (c57BL db/db male mice [3]; [15]): 3
urinary sugar, number of mice graded ± (c57BL db/db male mice [3]; [15]): 1
urinary sugar, number of mice graded − (c57BL db/db male mice [3]; [15]): 2
urinary sugar, Positive ratio (c57BL db/db male mice [3]; [15]): 63%
urinary sugar, number of mice graded + (c57BL db/db male mice [3]; [16]): 1
urinary sugar, number of mice graded ++ (c57BL db/db male mice [3]; [16]): 2
urinary sugar, number of mice graded +++ (c57BL db/db male mice [3]; [16]): 2
urinary sugar, number of mice graded ± (c57BL db/db male mice [3]; [16]): 0
urinary sugar, number of mice graded − (c57BL db/db male mice [3]; [16]): 5
urinary sugar, Positive ratio (c57BL db/db male mice [3]; [16]): 50%
urinary sugar, number of mice graded + (c57BL db/db male mice [3]; [17]): 1
urinary sugar, number of mice graded ++ (c57BL db/db male mice [3]; [17]): 1
urinary sugar, number of mice graded +++ (c57BL db/db male mice [3]; [17]): 2
urinary sugar, number of mice graded ± (c57BL db/db male mice [3]; [17]): 1
urinary sugar, number of mice graded − (c57BL db/db male mice [3]; [17]): 4
urinary sugar, Positive ratio (c57BL db/db male mice [3]; [17]): 44%
urinary sugar, number of mice graded + (c57BL db/db male mice [3]; [18]): 3
urinary sugar, number of mice graded ++ (c57BL db/db male mice [3]; [18]): 1
urinary sugar, number of mice graded +++ (c57BL db/db male mice [3]; [18]): 3
urinary sugar, number of mice graded ± (c57BL db/db male mice [3]; [18]): 2
urinary sugar, number of mice graded − (c57BL db/db male mice [3]; [18]): 1
urinary sugar, Positive ratio (c57BL db/db male mice [3]; [18]): 70%
body weight compared to control group (second group) (Body weight): significantly higher
autopsy of brain, heart, lungs, livers, pancreas, spleen, kidneys, adrenals (c57BL db/db male mice [4]; 0.1% and 0.3% in the feed, some mice with fat liver, as in the control db/db group): no particular abnormality was observed
weight of the testis (absolute weight) as % of that of the healthy mice (first group) (c57BL db/db male mice [4]; 0.3% in the feed, untreated diabetic mice 50 to 60%): 85%
general conditions during the experimental period (c57BL db/db male mice [5]): no abnormal findings such as diarrhea was observed
